Data as given in US20130236501A1, “Injectable Emulsion of Sedative Hypnotic Agent” (ASTRAZENECA AB, priority 2010, published 2013).
Converted amounts (≈) assume the structure as drawn.

Assay: Water solubility of Compound A
Assay type: physicochemical
Experimental: Agents for sedation and anaesthesia are frequently administered by intravenous injection, a form of administration for which the agents need to be in a water-miscible form. Compound A, however, is an oleaginous compound with a water solubility of about 2 mg/ml. Such a compound is considered “slightly soluble” in the solubility definitions in General Notices 5.30 of the United States Pharmacopeia, USP33-NF28, published by the United States Pharmacopeial Convention Inc., Rockville, Md. In the case of Compound A, this solubility is not optimal for a therapeutically useful dose to be prepared simply by dissolution in water. The preparation of slightly soluble medicinal compounds for intravenous administration has been the subject of considerable investigation, but remains a significant challenge in the development of new therapeutic agents. Several drug delivery systems have been investigated for such compounds. In the present application, emulsions, in which droplets of oil, in which the drug is itself dissolved, are dispersed in an aqueous medium with the aid of an emulsifier and other suitable excipients and processing. A similar method is used for the commercial formulation of propofol, (2,6-diisopropyl-phenol), which is commercially available as Diprivan® Injectable Emulsion at concentrations of 1% and 2%. Oil-in-water emulsions comprising propofol are described in WO 96/29064.

CCCOC(=O)Cc1ccc(OCC(=O)N(CC)CC)c(OCC)c1 [Compound A, [3-ethoxy-4-[(N,N-diethylcarbamido)methoxy]phenyl]acetic acid n-propyl ester]
solubility: ~2000 µg/mL (≈ 5.69 mM)
